Reference: ChEMBL document CHEMBL4385605, “Synthesis and Structure-Affinity Relationships of Spirocyclic Benzopyrans with Exocyclic Amino Moiety” (J Med Chem, 2019)
The source made the active and inactive calls. The calls are words filed in the database; no cut-off is given here.

Legend:
[1] = molecular target: T1, Sigma intracellular receptor 2 (Rattus norvegicus, UniProt Q5U3Y7); test: Displacement of [3H]-di-o-tolylguanidine from sigma2 receptor in rat liver membranes incubated for 120 mins in the presence of sigma1 receptor ligand (+)-pentazocine by scintillation counting method; type: cell membranes
T1 sequence (Q5U3Y7 whole entry): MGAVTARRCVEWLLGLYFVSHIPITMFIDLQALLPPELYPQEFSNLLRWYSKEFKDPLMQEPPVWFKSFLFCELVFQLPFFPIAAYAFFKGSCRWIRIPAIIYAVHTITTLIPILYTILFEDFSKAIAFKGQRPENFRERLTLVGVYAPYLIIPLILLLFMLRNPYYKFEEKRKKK

[2] = molecular target: Mu-type opioid receptor (Cavia porcellus, UniProt P97266); test: Displacement of [3H]DAMGO from mu opioid receptor in guinea pig brain membranes after 120 mins by scintillation counting analysis; type: cell membranes
Mu-type opioid receptor (Cavia porcellus, UniProt P97266), sequence (P97266 whole entry): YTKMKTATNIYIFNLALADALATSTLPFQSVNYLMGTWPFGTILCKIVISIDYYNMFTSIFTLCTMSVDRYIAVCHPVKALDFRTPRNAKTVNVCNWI

[3] = molecular target: Sigma intracellular receptor 2 (Homo sapiens, UniProt Q5BJF2); test: Displacement of [3H]-di-o-tolylguanidine from sigma2 receptor in human RT4 cell membranes at 1 uM after 120 mins in the presence of sigma1 receptor ligand (+)-pentazocine by scintillation counting method relative to control
[4] = molecular target: Kappa-type opioid receptor (Cavia porcellus, UniProt P41144); test: Displacement of [3H]U69,593 from kappa opioid receptor in guinea pig brain membrane after 120 mins by scintillation counting analysis; type: cell membranes
Kappa-type opioid receptor, sequence (P41144 whole entry): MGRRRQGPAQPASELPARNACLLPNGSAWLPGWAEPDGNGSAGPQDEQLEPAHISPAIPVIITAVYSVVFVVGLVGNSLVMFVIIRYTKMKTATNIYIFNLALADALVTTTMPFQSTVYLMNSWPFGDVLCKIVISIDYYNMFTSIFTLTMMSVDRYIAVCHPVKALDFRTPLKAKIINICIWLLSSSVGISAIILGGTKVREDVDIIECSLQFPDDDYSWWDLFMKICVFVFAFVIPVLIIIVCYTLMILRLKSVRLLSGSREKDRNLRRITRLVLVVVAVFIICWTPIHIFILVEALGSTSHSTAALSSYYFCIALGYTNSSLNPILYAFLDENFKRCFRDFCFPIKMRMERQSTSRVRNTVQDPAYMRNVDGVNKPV

[5] = species: Sus scrofa; test: Displacement of [3H]-(+)-MK-801 from PCP binding site of NMDA receptor in pig brain cortex membranes up to 1 uM after 120 mins by scintillation counting analysis; type: cell membranes
[6] = molecular target: Delta-type opioid receptor (Rattus norvegicus, UniProt P33533); test: Displacement of [3H]DPDPE from delta opioid receptor in rat membranes after 120 mins by scintillation counting analysis; type: cell membranes
Delta-type opioid receptor, sequence (P33533 whole entry): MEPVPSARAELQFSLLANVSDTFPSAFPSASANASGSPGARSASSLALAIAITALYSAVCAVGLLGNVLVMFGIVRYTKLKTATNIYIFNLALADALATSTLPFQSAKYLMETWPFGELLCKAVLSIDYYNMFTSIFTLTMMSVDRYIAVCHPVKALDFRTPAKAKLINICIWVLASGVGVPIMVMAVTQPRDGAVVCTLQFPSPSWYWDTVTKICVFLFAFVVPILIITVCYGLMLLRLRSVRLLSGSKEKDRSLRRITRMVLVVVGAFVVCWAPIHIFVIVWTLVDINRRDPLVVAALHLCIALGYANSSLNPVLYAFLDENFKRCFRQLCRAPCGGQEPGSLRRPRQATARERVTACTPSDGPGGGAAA

[7] = species: Cavia porcellus; test: Selectivity ratio of Ki for displacement of [3H](+)-pentazocine from sigma 1 receptor in guinea pig brain cortex membranes to Ki for displacement of [3H]DAMGO from mu opioid receptor in guinea pig brain membranes; type: cell membranes
[8] = Selectivity ratio of Ki for displacement of [3H]DTG from sigma2 receptor in rat liver membranes to Ki for displacement of (+)-[3H]pentazocine from sigma 1 receptor in guinea pig brain cortex membranes; type: cell membranes
[9] = molecular target: Sigma intracellular receptor 2 (Rattus norvegicus) (UniProt Q5U3Y7); test: Displacement of [3H]-di-o-tolylguanidine from sigma2 receptor in rat liver membranes at 1 uM incubated for 120 mins in the presence of sigma1 receptor ligand (+)-pentazocine by scintillation counting method relative to control; type: cell membranes
[10] = molecular target: Delta-type opioid receptor (Rattus norvegicus) (UniProt P33533); test: Displacement of [3H]DPDPE from delta opioid receptor in rat membrane at 1 uM after 120 mins by scintillation counting analysis relative to control; type: cell membranes
Delta-type opioid receptor (Rattus norvegicus), sequence (P33533 whole entry): as above

[11] = molecular target: Sigma non-opioid intracellular receptor 1 (Cavia porcellus, UniProt Q60492); test: Displacement of [3H](+)-pentazocine from sigma 1 receptor in guinea pig brain cortex membranes after 120 mins by scintillation counting analysis; type: cell membranes
[12] = molecular target: CYP2D6 (Homo sapiens, UniProt P10635); test: Inhibition of recombinant human CYP2D6 at 1 uM by fluorescence assay relative to control; type: ADME
CYP2D6, sequence (P10635 whole entry): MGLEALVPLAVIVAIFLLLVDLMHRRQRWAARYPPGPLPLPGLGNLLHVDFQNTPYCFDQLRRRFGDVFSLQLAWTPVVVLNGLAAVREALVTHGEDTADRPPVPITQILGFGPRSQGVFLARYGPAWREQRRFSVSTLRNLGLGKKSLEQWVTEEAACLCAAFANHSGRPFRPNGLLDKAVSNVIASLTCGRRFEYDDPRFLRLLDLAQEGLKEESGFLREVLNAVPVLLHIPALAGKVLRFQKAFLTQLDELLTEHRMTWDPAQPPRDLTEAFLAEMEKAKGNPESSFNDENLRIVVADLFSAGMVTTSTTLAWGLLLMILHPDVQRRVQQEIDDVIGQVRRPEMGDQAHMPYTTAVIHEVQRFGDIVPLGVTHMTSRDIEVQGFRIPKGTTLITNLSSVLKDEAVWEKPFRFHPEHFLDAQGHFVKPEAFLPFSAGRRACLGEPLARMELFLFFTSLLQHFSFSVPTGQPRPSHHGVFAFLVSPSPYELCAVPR

[13] = molecular target: Sigma non-opioid intracellular receptor 1 (Homo sapiens, UniProt Q99720); test: Displacement of [3H](+)-pentazocine from sigma 1 receptor in human RPMI8226 cell membranes incubated for 2 hrs under shaking by scintillation counting analysis
Sigma non-opioid intracellular receptor 1 (Homo sapiens, UniProt Q99720), sequence (Q99720 whole entry): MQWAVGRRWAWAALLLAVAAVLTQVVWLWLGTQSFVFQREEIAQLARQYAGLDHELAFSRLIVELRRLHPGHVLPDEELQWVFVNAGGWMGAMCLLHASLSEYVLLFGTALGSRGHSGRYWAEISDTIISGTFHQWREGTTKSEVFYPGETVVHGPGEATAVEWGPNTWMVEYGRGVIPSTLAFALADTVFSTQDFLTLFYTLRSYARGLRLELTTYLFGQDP

[14] = molecular target: Cytochrome P450 2C19 (Homo sapiens, UniProt P33261); test: Inhibition of recombinant human CYP2C19 at 1 uM by fluorescence assay; type: ADME; settings: recombinant enzyme
Cytochrome P450 2C19, sequence (P33261 whole entry): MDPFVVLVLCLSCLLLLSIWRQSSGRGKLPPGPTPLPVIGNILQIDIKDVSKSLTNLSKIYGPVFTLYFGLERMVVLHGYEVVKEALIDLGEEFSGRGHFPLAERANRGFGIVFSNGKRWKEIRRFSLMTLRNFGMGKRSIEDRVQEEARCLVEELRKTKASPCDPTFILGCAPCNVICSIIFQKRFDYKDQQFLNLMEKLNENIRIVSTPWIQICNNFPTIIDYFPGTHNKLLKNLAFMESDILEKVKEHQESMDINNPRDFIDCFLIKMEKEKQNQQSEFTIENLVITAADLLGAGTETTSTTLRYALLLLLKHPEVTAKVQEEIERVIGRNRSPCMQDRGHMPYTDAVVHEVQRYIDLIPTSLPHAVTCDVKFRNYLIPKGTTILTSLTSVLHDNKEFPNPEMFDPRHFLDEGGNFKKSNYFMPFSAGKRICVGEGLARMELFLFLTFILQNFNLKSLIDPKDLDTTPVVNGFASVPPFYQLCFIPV

[15] = test system: HepG2; test: Cytotoxicity against human HepG2 cells at 1 to 100 uM incubated for 20 hrs under serum free condition by MTT assay; type: cell-based; settings: hepg2, 20 h
[16] = Metabolic stability in human liver microsomes assessed as parent compound remaining at 1 uM in the presence of NADPH regenerating system after 60 mins by UPLC/MS analysis; type: ADME, Microsome; settings: read-out: Stability
[17] = molecular target: T2, 5-hydroxytryptamine receptor 1A (Homo sapiens) (UniProt P08908); test: Binding affinity to 5-HT1AR (unknown origin) at 1 uM relative to control
T2 sequence (whole entry): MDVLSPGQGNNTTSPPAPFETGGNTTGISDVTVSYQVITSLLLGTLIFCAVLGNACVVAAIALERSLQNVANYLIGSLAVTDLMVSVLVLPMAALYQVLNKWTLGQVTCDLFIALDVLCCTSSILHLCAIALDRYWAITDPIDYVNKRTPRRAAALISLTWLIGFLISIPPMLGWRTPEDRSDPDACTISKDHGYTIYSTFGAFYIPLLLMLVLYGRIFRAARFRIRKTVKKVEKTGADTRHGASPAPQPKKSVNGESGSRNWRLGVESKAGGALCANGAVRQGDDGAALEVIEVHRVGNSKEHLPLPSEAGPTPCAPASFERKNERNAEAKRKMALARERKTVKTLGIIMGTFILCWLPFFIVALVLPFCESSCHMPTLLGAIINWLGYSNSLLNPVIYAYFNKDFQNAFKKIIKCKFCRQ

[18] = molecular target: Mu-type opioid receptor (Cavia porcellus) (UniProt P97266); test: Displacement of [3H]DAMGO from mu opioid receptor in guinea pig brain membranes at 1 uM after 120 mins by scintillation counting analysis relative to control; type: cell membranes
[19] = molecular target: Sodium-dependent serotonin transporter (Homo sapiens) (UniProt P31645); test: Binding affinity to serotonin transporter (unknown origin) at 1 uM
Sodium-dependent serotonin transporter (Homo sapiens), sequence (P31645 whole entry, looked up): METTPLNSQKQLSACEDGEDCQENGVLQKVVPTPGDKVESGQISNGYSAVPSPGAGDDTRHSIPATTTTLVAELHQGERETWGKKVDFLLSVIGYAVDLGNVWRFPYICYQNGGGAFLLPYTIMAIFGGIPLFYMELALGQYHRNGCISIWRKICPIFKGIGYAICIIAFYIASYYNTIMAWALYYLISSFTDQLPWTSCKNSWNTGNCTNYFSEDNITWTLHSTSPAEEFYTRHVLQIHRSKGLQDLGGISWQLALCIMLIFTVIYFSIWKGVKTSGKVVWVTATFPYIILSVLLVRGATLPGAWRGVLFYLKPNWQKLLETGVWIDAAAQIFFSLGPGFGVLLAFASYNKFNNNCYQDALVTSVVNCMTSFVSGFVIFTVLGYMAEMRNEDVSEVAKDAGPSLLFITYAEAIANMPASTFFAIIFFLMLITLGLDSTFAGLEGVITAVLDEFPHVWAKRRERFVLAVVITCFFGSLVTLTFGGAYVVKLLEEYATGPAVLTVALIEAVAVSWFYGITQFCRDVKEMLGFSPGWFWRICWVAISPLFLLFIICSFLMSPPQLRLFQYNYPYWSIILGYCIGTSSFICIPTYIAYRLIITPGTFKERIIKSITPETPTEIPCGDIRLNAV

[20] = molecular target: Cytochrome P450 3A4 (Homo sapiens, UniProt P08684); test: Inhibition of recombinant human CYP3A4 at 1 uM by fluorescence assay; type: ADME; settings: recombinant enzyme
Cytochrome P450 3A4, sequence (P08684 whole entry): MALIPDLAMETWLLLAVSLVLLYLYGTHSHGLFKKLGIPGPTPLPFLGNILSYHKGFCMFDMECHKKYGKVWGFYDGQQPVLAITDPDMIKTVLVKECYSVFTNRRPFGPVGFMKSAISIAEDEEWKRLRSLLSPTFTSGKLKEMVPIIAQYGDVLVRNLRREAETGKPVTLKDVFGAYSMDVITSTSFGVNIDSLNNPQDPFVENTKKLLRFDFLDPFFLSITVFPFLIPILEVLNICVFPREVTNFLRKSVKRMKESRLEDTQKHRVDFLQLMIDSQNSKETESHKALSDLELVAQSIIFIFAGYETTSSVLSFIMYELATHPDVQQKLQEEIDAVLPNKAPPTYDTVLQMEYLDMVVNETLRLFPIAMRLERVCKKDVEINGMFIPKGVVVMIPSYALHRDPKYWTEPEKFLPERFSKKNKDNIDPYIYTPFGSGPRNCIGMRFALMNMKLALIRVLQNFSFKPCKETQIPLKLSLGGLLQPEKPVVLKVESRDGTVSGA

[21] = molecular target: Sodium-dependent dopamine transporter (Homo sapiens) (UniProt Q01959); test: Binding affinity to dopamine transporter (unknown origin) at 1 uM
Sodium-dependent dopamine transporter (Homo sapiens), sequence (Q01959 whole entry): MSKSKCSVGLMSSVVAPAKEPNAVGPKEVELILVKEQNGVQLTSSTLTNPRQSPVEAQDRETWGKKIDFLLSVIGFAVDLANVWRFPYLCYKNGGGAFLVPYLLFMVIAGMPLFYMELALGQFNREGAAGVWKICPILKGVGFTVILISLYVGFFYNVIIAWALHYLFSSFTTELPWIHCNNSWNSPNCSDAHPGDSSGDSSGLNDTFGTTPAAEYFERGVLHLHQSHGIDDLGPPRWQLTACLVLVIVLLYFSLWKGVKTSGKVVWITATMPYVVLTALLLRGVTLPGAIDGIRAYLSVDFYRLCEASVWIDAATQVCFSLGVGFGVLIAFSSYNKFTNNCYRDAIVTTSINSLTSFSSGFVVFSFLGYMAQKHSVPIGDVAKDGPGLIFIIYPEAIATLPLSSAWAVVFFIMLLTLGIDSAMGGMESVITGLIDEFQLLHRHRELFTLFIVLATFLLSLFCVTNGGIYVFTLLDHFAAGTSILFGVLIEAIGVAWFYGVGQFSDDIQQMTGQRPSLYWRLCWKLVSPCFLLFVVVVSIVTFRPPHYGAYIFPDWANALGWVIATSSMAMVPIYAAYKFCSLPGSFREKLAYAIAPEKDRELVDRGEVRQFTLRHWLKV

[22] = molecular target: T3, Cytochrome P450 1A2 (Homo sapiens, UniProt P05177); test: Inhibition of recombinant human CYP1A2 at 1 uM by fluorescence assay; type: ADME; settings: recombinant enzyme
T3 sequence (P05177 whole entry): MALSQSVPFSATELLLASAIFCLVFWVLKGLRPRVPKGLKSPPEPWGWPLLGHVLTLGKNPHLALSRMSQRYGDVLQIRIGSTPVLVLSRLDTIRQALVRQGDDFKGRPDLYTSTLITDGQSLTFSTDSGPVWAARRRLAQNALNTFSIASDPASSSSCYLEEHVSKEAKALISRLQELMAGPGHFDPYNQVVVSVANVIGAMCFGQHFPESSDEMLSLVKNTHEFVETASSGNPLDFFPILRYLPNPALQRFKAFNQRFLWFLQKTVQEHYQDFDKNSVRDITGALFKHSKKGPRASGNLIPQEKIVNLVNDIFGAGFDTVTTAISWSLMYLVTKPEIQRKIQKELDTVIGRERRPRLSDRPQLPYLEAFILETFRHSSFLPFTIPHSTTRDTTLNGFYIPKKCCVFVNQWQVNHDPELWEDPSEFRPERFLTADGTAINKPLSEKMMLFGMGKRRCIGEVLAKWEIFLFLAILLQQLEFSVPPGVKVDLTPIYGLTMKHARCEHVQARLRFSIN

[23] = molecular target: Cytochrome P450 2C9 (Homo sapiens, UniProt P11712); test: Inhibition of recombinant human CYP2C9 at 1 uM by fluorescence assay; type: ADME; settings: recombinant enzyme
Cytochrome P450 2C9, sequence (P11712 whole entry): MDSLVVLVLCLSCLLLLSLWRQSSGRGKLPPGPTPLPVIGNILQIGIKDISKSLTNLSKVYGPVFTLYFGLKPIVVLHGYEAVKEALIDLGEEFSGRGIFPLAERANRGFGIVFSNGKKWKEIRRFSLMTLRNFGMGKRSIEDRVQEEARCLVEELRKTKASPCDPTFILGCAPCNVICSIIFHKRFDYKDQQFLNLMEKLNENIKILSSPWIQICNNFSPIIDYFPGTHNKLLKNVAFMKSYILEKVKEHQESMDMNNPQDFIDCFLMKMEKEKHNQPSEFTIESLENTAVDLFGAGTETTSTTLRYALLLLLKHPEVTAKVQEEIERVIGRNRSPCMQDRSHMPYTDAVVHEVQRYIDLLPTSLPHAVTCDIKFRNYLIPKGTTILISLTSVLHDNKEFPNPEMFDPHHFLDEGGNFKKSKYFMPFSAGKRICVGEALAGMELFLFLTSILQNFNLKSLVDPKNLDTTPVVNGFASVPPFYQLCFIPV

[24] = test system: HepG2; test: Cytotoxicity against human HepG2 cells at 1 to 100 uM incubated for 20 hrs under serum free condition by neutral red uptake assay; type: cell-based; settings: hepg2, 20 h
[25] = molecular target: 5-hydroxytryptamine receptor 2B (Homo sapiens) (UniProt P41595); test: Binding affinity to 5-HT2BR (unknown origin) at 1 uM relative to control
[26] = molecular target: Sodium-dependent noradrenaline transporter (Homo sapiens) (UniProt P23975); test: Binding affinity to noradrenaline transporter (unknown origin) at 1 uM
Sodium-dependent noradrenaline transporter (Homo sapiens), sequence (P23975 whole entry): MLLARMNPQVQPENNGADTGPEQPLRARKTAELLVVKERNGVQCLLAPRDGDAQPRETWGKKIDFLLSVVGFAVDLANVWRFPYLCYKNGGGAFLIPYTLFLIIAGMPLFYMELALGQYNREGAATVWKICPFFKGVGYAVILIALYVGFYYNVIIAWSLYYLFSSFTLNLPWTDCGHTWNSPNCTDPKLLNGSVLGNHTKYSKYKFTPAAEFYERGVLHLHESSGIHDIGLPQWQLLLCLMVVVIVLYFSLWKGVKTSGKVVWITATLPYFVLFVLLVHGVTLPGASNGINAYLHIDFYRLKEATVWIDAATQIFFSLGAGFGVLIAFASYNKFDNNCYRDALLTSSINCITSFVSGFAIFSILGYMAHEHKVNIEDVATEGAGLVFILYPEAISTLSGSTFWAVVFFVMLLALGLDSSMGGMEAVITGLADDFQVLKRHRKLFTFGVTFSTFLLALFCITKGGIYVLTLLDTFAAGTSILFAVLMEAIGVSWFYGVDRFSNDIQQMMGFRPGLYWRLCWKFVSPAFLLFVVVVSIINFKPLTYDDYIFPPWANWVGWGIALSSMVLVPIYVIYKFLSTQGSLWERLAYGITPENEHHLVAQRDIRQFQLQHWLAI

[27] = molecular target: T4, Alpha-2A adrenergic receptor (Homo sapiens) (UniProt P08913); test: Binding affinity to alpha 2a adrenergic receptor (unknown origin) at 1 uM relative to control
T4 sequence (whole entry): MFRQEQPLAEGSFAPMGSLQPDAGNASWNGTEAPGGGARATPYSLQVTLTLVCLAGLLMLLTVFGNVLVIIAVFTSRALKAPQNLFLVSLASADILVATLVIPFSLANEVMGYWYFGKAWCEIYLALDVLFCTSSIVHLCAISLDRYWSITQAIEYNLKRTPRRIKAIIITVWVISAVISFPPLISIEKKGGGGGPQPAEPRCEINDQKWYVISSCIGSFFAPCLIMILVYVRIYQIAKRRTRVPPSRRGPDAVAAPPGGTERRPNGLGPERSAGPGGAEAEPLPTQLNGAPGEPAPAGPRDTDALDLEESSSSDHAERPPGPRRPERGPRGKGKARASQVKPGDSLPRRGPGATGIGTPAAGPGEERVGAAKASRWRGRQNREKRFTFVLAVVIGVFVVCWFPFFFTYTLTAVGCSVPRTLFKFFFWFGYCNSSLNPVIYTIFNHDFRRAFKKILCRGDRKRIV

[28] = molecular target: T5, Alpha-1A adrenergic receptor (Homo sapiens) (UniProt P35348); test: Binding affinity to alpha 1a adrenergic receptor (unknown origin) at 1 uM relative to control
T5 sequence (whole entry): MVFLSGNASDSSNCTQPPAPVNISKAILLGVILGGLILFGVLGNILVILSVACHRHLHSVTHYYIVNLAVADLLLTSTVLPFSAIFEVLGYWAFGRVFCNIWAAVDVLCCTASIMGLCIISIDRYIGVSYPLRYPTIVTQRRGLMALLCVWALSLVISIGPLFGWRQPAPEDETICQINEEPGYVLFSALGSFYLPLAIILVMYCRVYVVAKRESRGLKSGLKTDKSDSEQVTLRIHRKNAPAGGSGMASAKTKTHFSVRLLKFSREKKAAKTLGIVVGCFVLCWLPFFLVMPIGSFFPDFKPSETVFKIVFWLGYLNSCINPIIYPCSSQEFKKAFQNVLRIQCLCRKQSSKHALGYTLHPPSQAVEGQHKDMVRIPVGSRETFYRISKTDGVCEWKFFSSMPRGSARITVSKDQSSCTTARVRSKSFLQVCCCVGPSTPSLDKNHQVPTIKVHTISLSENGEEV

[29] = molecular target: Mu-type opioid receptor (Homo sapiens, UniProt P35372); test: Binding affinity to human mu opioid receptor by cell based assay

Row | SMILES | Ki [1] [nM] | Ki [2] [nM] | Ki [4] [nM] | Activity [5] | Ki [6] [nM] | Ratio Ki [7] | Ratio Ki [8] | inhibition [9] [%] | Ki [11] [nM] | inhibition at 1 µM [12] [%] | Ki [13] [nM] | inhibition (INH) [14] | Activity [15] | remaining at 1 h, 1 µM [16] [%] | Activity [17] | Activity [19] | inhibition (INH) [20] | Activity [21] | inhibition (INH) [22] | inhibition (INH) [23] | other results
1 | COC1Cc2ccccc2[C@]2(CC[C@@H](NCc3ccccc3)CC2)O1 (stereo partly specified) | 2000 | 38 | 204 | inactive | 49 | 14 | 5 to 10 |  |  |  |  |  |  |  |  |  |  |  |  |  | inhibition [3]: 40%
2 | COC1O[C@]2(CC[C@H](NCc3ccccc3)CC2)c2ccccc21 (stereo partly specified) |  | 115 | 413 |  |  |  | 5 to 10 | 25 | 262 |  |  |  |  |  |  |  |  |  |  |  | inhibition [10]: 30%
3 | c1ccc(CN[C@H]2CC[C@@]3(CC2)OCCc2ccccc23)cc1 |  | 31 | 85 |  | 14 | 8.5 | 5 to 10 | 13 | 256 |  |  |  |  |  |  |  |  |  |  |  | 
4 | COC1Cc2ccccc2[C@]2(CC[C@H](N(C)Cc3ccccc3)CC2)O1 (stereo partly specified) | 329 |  | 2300 | inactive | 1300 |  | 5 to 10 |  |  | > 90 | 39 | Not Active | Non-Toxic | > 50 | inactive | inactive | Not Active | inactive | Not Active | Not Active | inhibition [18]: 12%; Activity [24]: Non-Toxic; Activity [25]: inactive; Activity [26]: inactive; Activity [27]: inactive; Activity [28]: inactive
5 | COC1Cc2ccccc2[C@]2(CC[C@@H](N(C)Cc3ccccc3)CC2)O1 (stereo partly specified) | 1440 | 41 | 250 | inactive | 371 |  | 5 to 10 |  |  | > 90 | 40 | Not Active | Non-Toxic | > 50 | inactive | inactive | Not Active | inactive | Not Active | Not Active | Ki [29]: 18 nM; Activity [24]: Non-Toxic; Activity [25]: inactive; Activity [26]: inactive; Activity [27]: inactive; Activity [28]: inactive
